Publication PMC11109252, “Synthetic aporphine alkaloids are potential therapeutics for Leigh syndrome” (Scientific Reports, 2024)
Entries after “also recorded” stand apart in the source; their conditions may differ.

Tests used:
GDF-15 [1] = assay: GDF-15 levels in the cell supernatant (ELISA); assay type: cell-based, human; settings: 24 h after co-administration with RSL3, compared to RSL3-only
Description: GDF-15 is a biomarker that is elevated in the blood of patients with mitochondrial diseases and is used for the diagnosis of mitochondrial diseases and determination of therapeutic efficacy[26],[36]. […] As previously reported, GDF-15 levels were measured by an enzyme-linked immuno sorbent assay (ELISA) using the Quantikin Human GDF-15 ELISA Kit (R&D Systems, Minneapolis, MN, USA). Samples were obtained from anti-RSL3-induced cell death assays with candidate compounds (D31, D55, and D40), and cell supernatants 24 h after reagent addition were used for the assay. Measured values were calculated with reference to internal standards and compared to GDF-15 values.

[2] = test system: LS patient-derived skin fibroblasts; assay: Mitochondrial ATP production capacity (extracellular flux analyzer, OCR); assay type: cell-based, human; settings: 100 nM compound
Description: The extracellular flux analyzer Seahorse XFe96 (Agilent Technologies, Santa Clara, CA, USA) was used to evaluate the mitochondrial function. The extracellular flux analyzer measures the oxygen consumption rate (OCR) in the mitochondria during ATP synthesis and can also evaluate the intracellular mitochondrial function. The endpoints were the basal OCR, ATP-linked OCR, maximal OCR, and spare capacity, which are key indicators of the mitochondrial function in assays using living cells. Each indicator was calculated by continuously adding ATP synthase inhibitors (oligomycin, rotenone and antimycin A) and deconjugating agents (carbonyl cyanide-p-trifluoromethoxyphenylhydrazone [FCCP]) during the measurement (Fig. 6). […] The OCR was measured over time by adding oligomycin (2 μM concentration) 20 min after drug addition, FCCP (2 μM concentration) 50 min later, and rotenone and antimycin A (0.5 μM concentration) 80 min later.

GDF-15 [3] = settings: cited from earlier work
[4] = cited from earlier work
[5] = test system: LS patient-derived skin fibroblasts; settings: cited from earlier work
[6] = test system: LS patient-derived skin fibroblasts; assay: Anti-RSL3-induced cell death activity assay; assay type: cell-based; settings: Homo sapiens, Skin fibroblast, read-out: Anti-RSL3-induced cell death effect EC50
Description: RSL3 is a glutathione peroxidase 4 (GPx4) inhibitor that specifically induces ferroptosis. Ferroptosis is an iron-dependent non-apoptotic type of cell death caused by lipid peroxidation.
After 24 h of incubation, the reagents were added to the RSL3 (−) derivative (−) and RSL3 ( +) derivative ( +) groups. […] The final concentration of RSL3 was 50–200 nM that would cause approximately 80–90% cell death after 24 h of incubation. The percentage of viable cells was measured 24 h after addition of each reagent.

[7] = test system: LS patient-derived skin fibroblasts; assay: Anti-BSO-induced cell death activity assay; settings: for EC50: viable cells 48 h after addition
dopamine D2 receptors = target: T1, dopamine D2 receptors (Homo sapiens, UniProt P14416); assay: Dopamine D2 receptor agonist assay (GeneBLAzer D2-Gqo5-NFAT-bla CHO-K1 reporter); assay type: cell-based; settings: CHO cells stably expressing dopamine D2 receptors; NA: no activity; read-out: Dopamine D2 receptor agonist (DA) activity EC50
T1 construct: host or cells: CHO-K1 (GeneBLAzer D2-Gqo5-NFAT-bla)
T1 sequence (P14416 whole entry): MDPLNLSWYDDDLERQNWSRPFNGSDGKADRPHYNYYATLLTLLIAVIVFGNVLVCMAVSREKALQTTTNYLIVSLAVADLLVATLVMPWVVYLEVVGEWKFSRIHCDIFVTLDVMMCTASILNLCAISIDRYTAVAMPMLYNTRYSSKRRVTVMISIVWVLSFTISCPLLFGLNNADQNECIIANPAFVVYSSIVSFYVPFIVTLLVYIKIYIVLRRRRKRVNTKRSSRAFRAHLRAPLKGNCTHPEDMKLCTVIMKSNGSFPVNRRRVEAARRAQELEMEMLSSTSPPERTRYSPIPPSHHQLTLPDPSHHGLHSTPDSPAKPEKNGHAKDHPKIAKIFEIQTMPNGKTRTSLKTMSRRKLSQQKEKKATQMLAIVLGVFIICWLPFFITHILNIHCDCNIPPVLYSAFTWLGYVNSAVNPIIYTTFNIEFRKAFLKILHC
Description: CHO-K1 cells were spread in 384-well plates at 10,000 cells/32 μL/well, taking care not to touch the bottom of the wells. Cell-free-wells were injected with the same volume (32 μL) of assay medium. The plates were then incubated in a CO2 incubator for 16–20 h. […] The diluted solution (8 μL/well) was added to 384-well plates seeded with CHO-K1 cells and incubated in a CO2 incubator for 5 h. […] The addition of the drug induces D2 receptor activation, which activates signaling pathways and transcription factors, resulting in the expression of a reporter gene (β-lactamase) and cleavage of the fluorescence resonance energy transfer (FRET) substrate, causing the fluorescence to change from green to blue.

[8] = Homo sapiens, Skin fibroblast, 48 h, read-out: Anti-BSO-induced cell death effect EC50, co-added with BSO at a concentration giving 10%-20% cell viability

Row | SMILES | GDF-15 elevation in cell supernatant (GDF-15 [1]) | Enhancement of mitochondrial ATP production [2] | GDF-15 elevation in culture supernatant (GDF-15 [3]) | Concentrations in the brain versus plasma [4] | ATP production in LS patient-derived skin fibroblasts [5] | EC50 ([6]; 24 h) | EC50 [7, 8] | EC50 ([7]; read-out: Anti-BSO-induced cell death effect EC50, co-added with BSO at a concentration giving 10%-20% cell viability) | Anti-BSO cell death effect retained (same as apomorphine) ([7]; comparison of D29, D30, D31) | EC50 ([6]; co-added with RSL3 at a concentration giving 10%-20% cell viability, viable cells 24 h after addition) | EC50 (dopamine D2 receptors)
1 | CN1CCc2cccc3c2[C@H]1Cc1ccc(O)c(O)c1-3 [Apo, (9R)-10-methyl-10-azatetracyclo[7.7.1.0²,⁷.0¹³,¹⁷]heptadeca-1(17),2,4,6,13,15-hexaene-3,4-diol] | significant decrease | No significant enhancement | inhibits GDF-15 elevation | up to three-fold higher | increase ATP production |  |  |  |  |  | 
2 | CCCOc1ccc2c(c1O)-c1cccc3c1[C@@H](C2)N(C)CC3 [D40, (9R)-10-methyl-4-propoxy-10-azatetracyclo[7.7.1.0²,⁷.0¹³,¹⁷]heptadeca-1(17),2,4,6,13,15-hexaen-3-ol] | suppressed GDF-15 elevation; also recorded: significant decrease | showed any ability to enhance mitochondrial ATP production; also recorded: No significant enhancement |  |  |  | 231 nM | < 100 nM | 55 nM |  |  | 
3 | CCOc1ccc2c(c1O)-c1cccc3c1[C@@H](C2)N(C)CC3 [D55, (9R)-4-ethoxy-10-methyl-10-azatetracyclo[7.7.1.0²,⁷.0¹³,¹⁷]heptadeca-1(17),2,4,6,13,15-hexaen-3-ol] | suppressed GDF-15 elevation; also recorded: significant decrease | showed any ability to enhance mitochondrial ATP production; also recorded: No significant enhancement |  |  |  | 21 nM |  |  |  |  | 
4 | COc1ccc2c(c1O)-c1cccc3c1[C@@H](C2)N(C)CC3 [D31, (9R)-4-methoxy-10-methyl-10-azatetracyclo[7.7.1.0²,⁷.0¹³,¹⁷]heptadeca-1(17),2,4,6,13,15-hexaen-3-ol] | suppressed GDF-15 elevation; also recorded: significant decrease | showed any ability to enhance mitochondrial ATP production; also recorded: No significant enhancement |  |  |  | 27 nM |  |  | retained its anti-BSO cell death effect; also recorded: the only compound with the same anti-BSO-induced cell death activity as apomorphine |  | 
5 | CN1CCc2cccc3c2[C@H]1Cc1ccc(-c2ccccc2)c(O)c1-3 [D45, (9R)-10-methyl-4-phenyl-10-azatetracyclo[7.7.1.0²,⁷.0¹³,¹⁷]heptadeca-1(17),2,4,6,13,15-hexaen-3-ol] |  |  |  |  |  |  | < 100 nM |  |  | 745 nM | 2630 nM
